Tested on: thermal nociceptive threshold (hindpaw withdrawal latency) in rats with peripheral mononeuropathy
Test: Hargreaves paw withdrawal (plantar) test in rats with sciatic nerve ligation neuropathy
Assay type: in vivo, rat
Experimental: The operator positions the I.R. Generator directly beneath the hind paw of the rat and activates both the I.R. Source and a reaction time counter. When the rat feels pain and withdraws its paw, the I.R. Generator is automatically switched off and the timer stops, determining the withdrawal latency.
The testing was carried out on the eighth day following the operative procedure.
In order to determine a baseline for comparison purposes, rats were subjected to the Hargreaves paw withdrawal test before the subcutaneous injection of the various drugs or drug combinations being tested. The rats were then injected subcutaneously with the particular drug or drug combination being tested and the percentage change in time for the rat to withdraw its paw from the thermal stimulation, in comparison with the baseline, was recorded as a percentage in paw withdrawal latency. […]
After 8 days, thermal nociceptive threshold, as determined by hindpaw withdrawal latency, was measured using a plantar test (Ugo Basile, Comero, Italy). […] This initiated a timing circuit which measured the time interval between the application of the light beam and the withdrawal of the hind paw. […]
Paw withdrawal latency was determined before injection and at different times after injection. […]

With `C=CCN1CC[C@]23c4c5ccc(O)c4O[C@H]2C(=O)CC[C@@]3(O)[C@H]1C5` [naloxone, 1-N-allyl-14-hydroxynorhydromorphinone] the “potentiation of sub-clinical doses of buprenorphine” value (Example 1, FIG. 1, low dose naloxone, weight ratios 20:1 and 15:1, subcutaneous, rats n=3) was “can be clearly seen” and the “potentiation of the sub-clinical doses of buprenorphine” value (Example 2, FIG. 2, buprenorphine 2.5 μg/kg co-administered subcutaneously at weight ratios 5:1 to 30:1, rats n=6) was “can be clearly seen”.
